Like-named read-outs stand apart in the source and are kept apart here.
How the values were obtained:
[1] = tested on: IL-2 stimulated pSTAT5 in Tall-1 T cells; assay: Cellular JAK3 potency assay: inhibition of IL-2 stimulated pSTAT5 in Tall-1 T cells; format: cell-based, human; details: for IC50: Homo sapiens, read-out: Tall-1 (pIC50) (converted)
Outline: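 Tall-1 human T cells (45,000/well) in phenol red-free DMEM with 10% FBS were preincubated with compound 1 h at 37 °C, then stimulated with IL-2 (final 300 ng/ml) for 30 min. Lysate pSTAT5 read by AlphaLisa; IC50 from inhibition curves, reported as pIC50 (mean±SD).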

[2] = biological target: T1, Tyk2 (Homo sapiens, UniProt P29597); assay: Biochemical Tyk2 kinase assay (LanthaScreen); details: for Ki: read-out: Tyk 2 (pKi) (converted)
T1 construct: GST; purchased Life Technologies
Outline: (§1)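 Recombinant GST-tagged JAK enzymes with GFP-STAT1 peptide substrate in 50 mM HEPES pH 7.5, 10 mM MgCl2, 1 mM EGTA, 0.01% Brij-35; compounds pre-incubated 1 h, then ATP added, 1 h reaction at ambient temperature. TR-FRET (Tb-anti-pSTAT1 pTyr701, 520/495 nm) after EDTA stop; IC50 by 4-parameter fit, converted to pKi via Cheng-Prusoff.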

[3] = biological target: T2, JAK3 (Homo sapiens, UniProt P52333); assay: Biochemical JAK3 kinase assay (LanthaScreen); set-up: GST; purchased Life Technologies; details: for Ki: read-out: JAK 3 (pKi) (converted)
T2 sequence (P52333 1-1124): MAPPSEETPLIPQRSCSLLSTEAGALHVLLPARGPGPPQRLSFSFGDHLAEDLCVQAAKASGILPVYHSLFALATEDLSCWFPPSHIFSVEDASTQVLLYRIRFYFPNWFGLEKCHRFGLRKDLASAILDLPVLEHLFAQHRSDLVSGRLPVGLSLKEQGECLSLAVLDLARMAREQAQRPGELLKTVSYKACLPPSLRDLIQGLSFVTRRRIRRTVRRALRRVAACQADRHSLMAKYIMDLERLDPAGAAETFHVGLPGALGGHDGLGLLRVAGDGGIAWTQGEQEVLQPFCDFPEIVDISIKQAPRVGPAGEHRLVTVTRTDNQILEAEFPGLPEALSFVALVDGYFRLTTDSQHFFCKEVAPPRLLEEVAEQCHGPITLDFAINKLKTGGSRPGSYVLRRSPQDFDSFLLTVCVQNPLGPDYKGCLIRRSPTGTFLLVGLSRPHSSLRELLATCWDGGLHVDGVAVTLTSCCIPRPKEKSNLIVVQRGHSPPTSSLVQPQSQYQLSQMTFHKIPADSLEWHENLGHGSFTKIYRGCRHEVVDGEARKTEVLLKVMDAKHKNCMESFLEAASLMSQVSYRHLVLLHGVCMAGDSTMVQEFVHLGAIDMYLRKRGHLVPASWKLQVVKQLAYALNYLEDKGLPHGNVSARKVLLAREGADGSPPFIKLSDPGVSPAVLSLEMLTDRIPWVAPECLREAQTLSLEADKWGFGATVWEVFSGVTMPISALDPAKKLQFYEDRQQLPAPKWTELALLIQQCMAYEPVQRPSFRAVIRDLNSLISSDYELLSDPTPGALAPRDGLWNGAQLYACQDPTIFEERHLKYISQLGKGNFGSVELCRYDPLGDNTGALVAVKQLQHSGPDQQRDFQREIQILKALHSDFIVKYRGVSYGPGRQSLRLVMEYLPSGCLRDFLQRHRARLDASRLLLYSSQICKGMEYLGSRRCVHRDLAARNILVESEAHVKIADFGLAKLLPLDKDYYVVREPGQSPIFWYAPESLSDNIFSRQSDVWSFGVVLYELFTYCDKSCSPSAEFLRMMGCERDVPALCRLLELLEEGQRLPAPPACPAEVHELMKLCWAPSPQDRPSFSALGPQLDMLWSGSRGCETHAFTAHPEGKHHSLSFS
Outline: as §1

[4] = biological target: T3, JAK2 (Homo sapiens, UniProt O60674); assay: Biochemical JAK2 kinase assay (LanthaScreen); details: for Ki: read-out: JAK 2 (pKi) (converted)
T3 construct: GST; purchased Life Technologies
Outline: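 GST-tagged recombinant JAK2 pre-incubated 1 h at ambient temperature with compound and GFP-STAT1 peptide in HEPES pH 7.5/MgCl2 buffer, then ATP added for a 1 h reaction with 1% DMSO. TR-FRET read after EDTA and Tb-anti-pSTAT1 (pTyr701) addition; IC50 from 4-parameter fit, converted to pKi by Cheng-Prusoff.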

[5] = biological target: T4, JAK1 (Homo sapiens, UniProt P23458); assay: Biochemical JAK1 kinase assay (LanthaScreen); details: for Ki: read-out: JAK 1 (pKi) (converted)
T4 construct: GST; purchased Life Technologies
Outline: as §1

[6] = TALL-1, IL-2 stimulated pSTAT5 in Tall-1 T cells
[7] = selectivity: difference of pKi JAK3 and pKi JAK1
[8] = IL-2 stimulated pSTAT5 in Tall-1 T cells
[9] = IL-2 stimulated pSTAT5, Tall-1 T cells
[10] = selectivity JAK3 over JAK1, difference of pKi
[11] = TALL-1, IL-2 stimulated pSTAT5, Tall-1 T cells

T3 sequence (O60674 whole entry): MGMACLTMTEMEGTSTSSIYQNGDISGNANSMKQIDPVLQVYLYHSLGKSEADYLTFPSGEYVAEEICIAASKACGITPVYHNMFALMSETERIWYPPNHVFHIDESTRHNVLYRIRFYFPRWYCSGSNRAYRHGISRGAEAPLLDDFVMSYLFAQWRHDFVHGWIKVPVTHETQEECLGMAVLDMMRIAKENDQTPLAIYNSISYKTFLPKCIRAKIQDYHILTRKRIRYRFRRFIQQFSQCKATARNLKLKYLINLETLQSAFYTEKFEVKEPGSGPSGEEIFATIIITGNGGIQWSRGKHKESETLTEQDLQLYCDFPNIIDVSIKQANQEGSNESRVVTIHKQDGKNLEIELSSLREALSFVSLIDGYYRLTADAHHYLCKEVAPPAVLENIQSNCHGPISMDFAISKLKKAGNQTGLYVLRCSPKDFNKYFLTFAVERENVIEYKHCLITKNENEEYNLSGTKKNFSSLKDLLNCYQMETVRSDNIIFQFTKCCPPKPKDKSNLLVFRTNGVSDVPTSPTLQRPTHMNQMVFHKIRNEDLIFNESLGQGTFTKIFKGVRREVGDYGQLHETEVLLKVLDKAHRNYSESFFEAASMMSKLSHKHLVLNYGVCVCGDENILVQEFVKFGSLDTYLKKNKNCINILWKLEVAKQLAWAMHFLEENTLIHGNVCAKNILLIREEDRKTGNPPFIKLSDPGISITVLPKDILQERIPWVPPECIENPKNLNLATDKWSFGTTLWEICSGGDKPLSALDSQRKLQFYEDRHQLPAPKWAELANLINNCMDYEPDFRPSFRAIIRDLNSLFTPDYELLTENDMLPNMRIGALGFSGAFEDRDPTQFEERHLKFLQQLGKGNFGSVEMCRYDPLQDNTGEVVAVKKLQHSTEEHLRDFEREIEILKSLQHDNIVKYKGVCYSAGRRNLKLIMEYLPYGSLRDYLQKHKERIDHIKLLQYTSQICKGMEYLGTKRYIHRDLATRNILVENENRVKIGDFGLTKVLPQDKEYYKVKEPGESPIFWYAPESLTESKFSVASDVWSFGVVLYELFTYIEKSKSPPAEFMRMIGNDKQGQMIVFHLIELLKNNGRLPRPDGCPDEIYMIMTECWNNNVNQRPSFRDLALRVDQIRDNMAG
T1 sequence (P29597 whole entry): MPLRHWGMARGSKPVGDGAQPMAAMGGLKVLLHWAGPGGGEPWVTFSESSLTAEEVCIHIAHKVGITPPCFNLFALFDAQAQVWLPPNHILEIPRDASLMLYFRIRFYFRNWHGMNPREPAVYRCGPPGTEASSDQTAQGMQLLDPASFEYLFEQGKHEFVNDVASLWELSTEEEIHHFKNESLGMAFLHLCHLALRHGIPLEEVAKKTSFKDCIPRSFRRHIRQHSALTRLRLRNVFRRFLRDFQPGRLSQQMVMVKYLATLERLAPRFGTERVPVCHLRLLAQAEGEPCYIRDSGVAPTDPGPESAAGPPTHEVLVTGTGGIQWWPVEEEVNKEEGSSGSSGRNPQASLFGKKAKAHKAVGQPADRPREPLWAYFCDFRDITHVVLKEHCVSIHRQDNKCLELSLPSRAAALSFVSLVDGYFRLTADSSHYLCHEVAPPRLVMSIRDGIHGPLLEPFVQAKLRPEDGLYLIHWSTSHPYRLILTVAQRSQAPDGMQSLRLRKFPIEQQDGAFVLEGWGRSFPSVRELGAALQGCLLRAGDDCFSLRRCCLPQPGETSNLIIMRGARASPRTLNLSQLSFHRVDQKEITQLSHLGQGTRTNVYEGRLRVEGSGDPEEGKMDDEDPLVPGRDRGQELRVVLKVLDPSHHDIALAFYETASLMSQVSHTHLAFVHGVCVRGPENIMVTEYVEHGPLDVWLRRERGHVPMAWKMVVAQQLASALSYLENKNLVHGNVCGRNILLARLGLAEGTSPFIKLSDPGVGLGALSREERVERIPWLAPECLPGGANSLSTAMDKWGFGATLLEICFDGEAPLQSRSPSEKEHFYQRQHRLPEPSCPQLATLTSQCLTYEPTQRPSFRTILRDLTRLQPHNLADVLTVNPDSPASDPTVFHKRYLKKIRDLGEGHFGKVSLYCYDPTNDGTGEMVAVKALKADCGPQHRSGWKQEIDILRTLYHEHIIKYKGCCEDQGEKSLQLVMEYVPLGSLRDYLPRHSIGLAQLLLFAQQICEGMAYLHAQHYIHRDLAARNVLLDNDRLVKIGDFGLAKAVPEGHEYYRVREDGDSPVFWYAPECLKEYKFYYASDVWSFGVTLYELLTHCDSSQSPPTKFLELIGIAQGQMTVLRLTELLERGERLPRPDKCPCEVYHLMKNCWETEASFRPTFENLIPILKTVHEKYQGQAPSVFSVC
T4 sequence (P23458 whole entry): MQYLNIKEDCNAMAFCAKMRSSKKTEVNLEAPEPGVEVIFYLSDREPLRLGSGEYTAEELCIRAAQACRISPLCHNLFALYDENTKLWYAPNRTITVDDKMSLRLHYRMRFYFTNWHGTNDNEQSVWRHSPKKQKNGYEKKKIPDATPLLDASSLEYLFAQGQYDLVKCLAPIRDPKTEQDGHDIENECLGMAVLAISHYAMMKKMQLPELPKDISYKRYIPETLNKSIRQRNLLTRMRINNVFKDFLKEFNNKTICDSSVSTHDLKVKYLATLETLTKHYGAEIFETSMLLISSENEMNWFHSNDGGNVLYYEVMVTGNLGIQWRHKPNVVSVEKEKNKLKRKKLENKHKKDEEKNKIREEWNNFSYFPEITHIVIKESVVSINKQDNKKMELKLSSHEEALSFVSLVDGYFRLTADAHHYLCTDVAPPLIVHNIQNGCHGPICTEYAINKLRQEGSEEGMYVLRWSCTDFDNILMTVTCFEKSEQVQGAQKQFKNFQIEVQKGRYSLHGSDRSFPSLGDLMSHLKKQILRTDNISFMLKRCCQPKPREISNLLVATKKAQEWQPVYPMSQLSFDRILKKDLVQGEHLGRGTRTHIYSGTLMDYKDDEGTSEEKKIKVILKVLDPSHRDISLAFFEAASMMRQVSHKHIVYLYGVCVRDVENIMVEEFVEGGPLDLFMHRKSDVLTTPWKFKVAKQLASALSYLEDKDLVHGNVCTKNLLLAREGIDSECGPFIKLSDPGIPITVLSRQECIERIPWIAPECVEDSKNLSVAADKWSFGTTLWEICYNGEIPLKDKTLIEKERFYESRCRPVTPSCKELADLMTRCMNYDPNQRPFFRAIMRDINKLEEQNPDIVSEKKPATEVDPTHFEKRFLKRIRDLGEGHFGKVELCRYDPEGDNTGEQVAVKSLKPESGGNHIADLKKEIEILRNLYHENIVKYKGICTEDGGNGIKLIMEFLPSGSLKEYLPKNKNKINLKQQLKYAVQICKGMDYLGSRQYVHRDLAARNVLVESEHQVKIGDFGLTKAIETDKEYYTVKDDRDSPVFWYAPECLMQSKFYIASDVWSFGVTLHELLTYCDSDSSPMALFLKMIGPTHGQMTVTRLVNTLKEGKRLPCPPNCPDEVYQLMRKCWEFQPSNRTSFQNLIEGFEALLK

| SMILES | IC50 [1, 6] [nM] | Ki [2] [nM] | Ki [3] [nM] | JAK3 (pKi)-JAK1 (pKi) [3, 7] | Ki [4] [nM] | Ki [5] [nM] | Tall-1 (pIC50) [1, 8] | Tyk 2 (pKi) [2] | JAK 3 (pKi) [3] | JAK 2 (pKi) [4] | JAK 1 (pKi) [5] | Tall-1 (pIC50) [1, 9] | JAK3 (pKi)-JAK1 (pKi) [3, 10] | IC50 [1, 11] [nM] |
| --- | --- | --- | --- | --- | --- | --- | --- | --- | --- | --- | --- | --- | --- | --- |
| C=CC(=O)N1CC(COc2cc(-c3ccc(O)c(OC)c3)cc3[nH]ncc23)C1 [Compound 3-83] | < 31.6 | > 100 | < 0.1 | A (a value of 3 or above) | > 100 | > 100 |  |  |  |  |  |  |  |  |
| C=CC(=O)N1CC(COc2cc(-c3ccc(O)c(F)c3)cc3[nH]ncc23)(OC)C1 [Compound 3-75] |  |  |  | A (a value of 3 or above) |  |  | A (a pIC50 value≥7.5 (IC50≤32 nM)) | E (a pKi value of 7 or below (Ki of 100 nM or above)) | B (a pKi value between 9 and 10 (Ki between 1 nM and 0.1 nM)) | E (a pKi value of 7 or below (Ki of 100 nM or above)) | E (a pKi value of 7 or below (Ki of 100 nM or above)) |  |  |  |
| CN(C)C/C=C/C(=O)N1CC(CSc2cc(-c3ccc(O)c(F)c3)cc3[nH]ncc23)C1 [Compound 13-5] |  |  |  |  |  |  |  | E (a pKi value of 7 or below (Ki of 100 nM or above)) | A (a pKi value≥10 (Ki≤0.1 nM)) | D (a pKi value between 7 and 8 (Ki between 100 nM and 10 nM)) | E (a pKi value of 7 or below (Ki of 100 nM or above)) | B (a pIC50 value between 6.7 (included) and 7.5 (IC50 between 200 nM and 32 nM)) | A (a value of 3 or above) |  |
| C=CC(=O)N1CCC(C)(Nc2cc(-c3ccc(O)c(Cl)c3)cc3[nH]ncc23)CC1 [Compound 7-11] |  |  |  |  |  |  |  | E (a pKi value of 7 or below (Ki of 100 nM or above)) | A (a pKi value≥10 (Ki≤0.1 nM)) | D (a pKi value between 7 and 8 (Ki between 100 nM and 10 nM)) | E (a pKi value of 7 or below (Ki of 100 nM or above)) | A (a pIC50 value≥7.5 (IC50≤32 nM)) | A (a value of 3 or above) |  |
| C=CC(=O)N1CCC(Oc2cc(-c3ccc(O)c(F)c3)nc3[nH]ncc23)CC1 [Compound 6-18] |  | > 100 | < 0.1 |  | > 100 | > 100 |  |  |  |  |  |  | A (a value of 3 or above) | 31.6 to 200 |
| CN(C)C/C=C/C(=O)N1CC(COc2nc(-c3ccc(O)c(F)c3)cc3[nH]ncc23)C1 [Compound 3-36] | 31.6 to 200 | > 100 | < 0.1 | A (a value of 3 or above) | > 100 | > 100 |  |  |  |  |  |  |  |  |
| CN(C)C/C=C/C(=O)N1CC(OCc2cc(-c3ccc(O)cc3)cc3[nH]ncc23)C1 [Compound 12-38] |  | > 100 | < 0.1 |  | > 100 | > 100 |  |  |  |  |  |  | A (a value of 3 or above) | 31.6 to 200 |
| C=CC(=O)N1CC(C)(COc2cc(-c3ccc(O)cc3)nc3[nH]ncc23)C1 [Compound 3-58] |  |  |  | A (a value of 3 or above) |  |  | B (a pIC50 value between 6.7 (included) and 7.5 (IC50 between 200 nM and 32 nM)) | E (a pKi value of 7 or below (Ki of 100 nM or above)) | A (a pKi value≥10 (Ki≤0.1 nM)) | E (a pKi value of 7 or below (Ki of 100 nM or above)) | E (a pKi value of 7 or below (Ki of 100 nM or above)) |  |  |  |
| C=CC(=O)N1CCC[C@H](Oc2nc(-c3ccc(O)c(F)c3)cc3[nH]ncc23)C1 [Compound 8-11] |  |  |  |  |  |  |  | E (a pKi value of 7 or below (Ki of 100 nM or above)) | A (a pKi value≥10 (Ki≤0.1 nM)) | D (a pKi value between 7 and 8 (Ki between 100 nM and 10 nM)) | D (a pKi value between 7 and 8 (Ki between 100 nM and 10 nM)) | A (a pIC50 value≥7.5 (IC50≤32 nM)) | B (a value of 2.3 to 3) |  |
| CN(C/C=C/C(=O)N1CC(COc2cc(-c3ccc(O)cc3)cc3[nH]ncc23)C1)C1CCC1 [Compound 3-117] | 31.6 to 200 | > 100 | 0.1 to 1 | B (a value of 2.3 to 3) | 10 to 100 | > 100 |  |  |  |  |  |  |  |  |
| C=CC(=O)N1CC(C)(Oc2cc(-c3ccc(O)cc3)cc3[nH]ncc23)C1 [Compound 5-12] |  |  |  | A (a value of 3 or above) |  |  | B (a pIC50 value between 6.7 (included) and 7.5 (IC50 between 200 nM and 32 nM)) | E (a pKi value of 7 or below (Ki of 100 nM or above)) | B (a pKi value between 9 and 10 (Ki between 1 nM and 0.1 nM)) | E (a pKi value of 7 or below (Ki of 100 nM or above)) | E (a pKi value of 7 or below (Ki of 100 nM or above)) |  |  |  |
| CN(C)C/C=C/C(=O)N1CC(Sc2cc(-c3ccc(O)cc3)cc3[nH]ncc23)C1 [Compound 12-51] |  |  |  |  |  |  |  | E (a pKi value of 7 or below (Ki of 100 nM or above)) | A (a pKi value≥10 (Ki≤0.1 nM)) | D (a pKi value between 7 and 8 (Ki between 100 nM and 10 nM)) | D (a pKi value between 7 and 8 (Ki between 100 nM and 10 nM)) | B (a pIC50 value between 6.7 (included) and 7.5 (IC50 between 200 nM and 32 nM)) | A (a value of 3 or above) |  |
| C=CC(=O)N1CC(COc2cc(-c3ccc(O)c(F)c3)cc3[nH]ncc23)C1 [Compound 3-4] | < 31.6 | > 100 | 0.1 to 1 | A (a value of 3 or above) | 10 to 100 | > 100 |  |  |  |  |  |  |  |  |
| C=CC(=O)N1C2CCC1CC(Oc1cc(-c3ccc(O)cc3)cc3[nH]ncc13)C2 (stereo not drawn) [Compound 10-2] |  |  |  |  |  |  |  | D (a pKi value between 7 and 8 (Ki between 100 nM and 10 nM)) | A (a pKi value≥10 (Ki≤0.1 nM)) | C (a pKi value between 8 and 9 (Ki between 10 nM and 1 nM)) | D (a pKi value between 7 and 8 (Ki between 100 nM and 10 nM)) | A (a pIC50 value≥7.5 (IC50≤32 nM)) | B (a value of 2.3 to 3) |  |
